Laboratory results reported in patent US20040082605A1, “Use” (priority 2001, published 2004).

Test system: gastric (corpus) ulcers induced by indomethacin
Test: Indomethacin induced gastric ulcer in rats, stomach examined macroscopically
Format: in vivo
Settings: male rats; for Median number of gastric (corpus) ulcers induced by indomethacin: Ulcer furrows / Median number of gastric (corpus) ulcers induced by indomethacin: Pinhead ulcers: stomach removed 5 h after indomethacin; for Median number of gastric (corpus) ulcers induced by indomethacin: Ulcer furrows: furrows >3 mm; for Median number of gastric (corpus) ulcers induced by indomethacin: Pinhead ulcers: pinhead = diameter 3 mm or less; for Effect against gastric ulcers induced by indomethacin: oral dosing 1 h before indomethacin 20 mg/kg orally, result in words
Protocol: Groups of […] male rats were given oral doses of vehicle, 2,3-dimethyl-8-(2-ethyl-6-methylbenzylamino)-imidazo[1,2-a]pyridine-6-carboxamide(0.3, 1, 3 and 10 μmol/kg) or ranitidine (10 μmol/kg). Indomethacin 20 mg/kg, orally) was given 1 h after dosing. Stomach was removed 5 h after indomethacin and examined macroscopically Indomethacin induced ulcers in the corpus only, rumen and anthrum were unaffected. Ulcers in the corpus were classified as pinhead (diameter 3 mm or less) or furrows (>3 mm).

[1] = oral dose 0.3 μmol/kg 1 h before indomethacin 20 mg/kg orally
[2] = oral dose 1 μmol/kg 1 h before indomethacin 20 mg/kg orally
[3] = oral dose 3 μmol/kg 1 h before indomethacin 20 mg/kg orally
[4] = oral dose 10 μmol/kg 1 h before indomethacin 20 mg/kg orally
[5] = oral doses 0.3, 1, 3 and 10 μmol/kg

Compound	Median number of gastric (corpus) ulcers induced by indomethacin: Ulcer furrows [1]	Median number of gastric (corpus) ulcers induced by indomethacin: Pinhead ulcers [1]	Median number of gastric (corpus) ulcers induced by indomethacin: Ulcer furrows [2]	Median number of gastric (corpus) ulcers induced by indomethacin: Pinhead ulcers [2]	Median number of gastric (corpus) ulcers induced by indomethacin: Ulcer furrows [3]	Median number of gastric (corpus) ulcers induced by indomethacin: Pinhead ulcers [3]	Median number of gastric (corpus) ulcers induced by indomethacin: Ulcer furrows [4]	Median number of gastric (corpus) ulcers induced by indomethacin: Pinhead ulcers [4]	Dose at which the decrease in pinhead ulcers and ulcer furrows was maximal [5]	Dose from which the decrease in pinhead ulcers and ulcer furrows was statistically significant [5]	Effect against gastric ulcers induced by indomethacin
CCc1cccc(C)c1CNc1cc(C(N)=O)cn2c(C)c(C)nc12 [2,3-dimethyl-8-(2-ethyl-6-methylbenzylamino)-imidazo[1,2-a]pyridine-6-carboxamide]	8	5	9	5	1	2	0	0	10 µmol/kg	3 µmol/kg	protective effect
CNC(=C[N+](=O)[O-])NCCSCc1ccc(CN(C)C)o1 [Ranitidine, ranitidine, reference compound]	–	–	–	–	–	–	11	7	–	–	no effect
